Our source for the EC50 values is patent US9254292B2, “Fused tetracycle derivatives and methods of use thereof for the treatment of viral diseases” (Merck Sharp & Dohme Corp., priority 2010, dated 2016).

Assay [1] concerns HCV replicon 1a WT. The assay is described as follows: Cell-based HCV replicon assay, genotype 1a WT. Also on record: species or system Hepatitis C virus. As to conditions: replicon cells, day 3, replicon RNA by real time PCR (Taqman). As to the method:
(§1) To measure cell-based anti-HCV activity of selected compounds of the present invention, replicon cells were seeded at 5000 cells/well in 96-well collagen I-coated Nunc plates in the presence of the test compound. Various concentrations of test compound, typically in 10 serial 2-fold dilutions, were added to the assay mixture, with the starting concentration ranging from 250 μM to 1 μM. The final concentration of DMSO was 0.5%, fetal bovine serum was 5%, in the assay media. Cells were harvested on day 3 by the addition of 1× cell lysis buffer (Ambion cat #8721). The replicon RNA level was measured using real time PCR (Taqman assay). The amplicon was located in 5B. The PCR primers were: 5B.2F, ATGGACAGGCGCCCTGA (SEQ ID NO. 1); 5B.2R, […] (SEQ ID NO. 2); the probe sequence was FAM-labeled CACGCCATGCGCTGCGG (SEQ ID NO. 3). GAPDH RNA was used as endogenous control and was amplified in the same reaction as NS5B (multiplex PCR) using primers and VIC-labeled probe recommended by the manufacturer (PE Applied Biosystem). The real-time RT-PCR reactions were run on ABI PRISM 7900HT Sequence Detection System using the following program: 48° C. for 30 minutes, 95° C. for 10 minutes, 40 cycles of 95° C. for 15 sec, 60° C. for 1 minutes The ΔCT values (CT5B-CTGAPDH) were plotted against the concentration of test compound and fitted to the sigmoid dose-response model using XLfit4 (MDL). EC50 was defined as the concentration of inhibitor necessary to achieve ΔCT=1 over the projected baseline; EC90 the concentration necessary to achieve ΔCT=3.2 over the baseline. Alternatively, to quantitate the absolute amount of replicon RNA, a standard curve was established by including serially diluted T7 transcripts of replicon RNA in the Taqman assay. All Taqman reagents were from PE Applied Biosystems. Such an assay procedure was described in detail in e.g. Malcolm et al., Antimicrobial Agents and Chemotherapy 50: 1013-1020 (2006).
(§2) HCV replicon assay data was calculated for selected compounds of the present invention using this method and is provided in the table below.

Assay [2] relates to HCV replicon 1b WT. Briefly: Cell-based HCV replicon assay, genotype 1b WT. As to conditions: replicon cells, day 3, replicon RNA by real time PCR (Taqman). Also noted: species or system Hepatitis C virus. How it is done:
as §1, §2
On the technique in general: In antiviral work, replicon cells carry a viral genome segment that copies itself.

The test system of assay [3] is HCV replicon 1a Y93H. The assay is described as follows: Cell-based HCV replicon assay, genotype 1a Y93H mutant. To be noted: Hepatitis C virus, 72 h, read-out: Replicon EC50 1a Y93H. As to the method:
To measure cell-based anti-HCV activity of selected compounds of the present invention, replicon cells were seeded at 5000 cells/well in 96-well collagen I-coated Nunc plates in the presence of the test compound. Various concentrations of test compound, typically in 10 serial 2-fold dilutions, were added to the assay mixture, with the starting concentration ranging from 250 μM to 1 μM. The final concentration of DMSO was 0.5%, fetal bovine serum was 5%, in the assay media. Cells were harvested on day 3 by the addition of 1× cell lysis buffer (Ambion cat #8721). The replicon RNA level was measured using real time PCR (Taqman assay). The amplicon was located in 5B. The PCR primers were: 5B.2F, ATGGACAGGCGCCCTGA (SEQ ID NO. 1); 5B.2R, […] (SEQ ID NO. 2); the probe sequence was FAM-labeled CACGCCATGCGCTGCGG (SEQ ID NO. 3). GAPDH RNA was used as endogenous control and was amplified in the same reaction as NS5B (multiplex PCR) using primers and VIC-labeled probe recommended by the manufacturer (PE Applied Biosystem). […] Alternatively, to quantitate the absolute amount of replicon RNA, a standard curve was established by including serially diluted T7 transcripts of replicon RNA in the Taqman assay. […]
as §2

Structures are written as SMILES.

By EC50 is commonly meant the midpoint of the concentration-response curve. With `COC(=O)N[C@H](C(=O)N1CCC[C@H]1c1ncc(-c2ccc3c(c2)OCCc2c-3oc3ccc(-c4cnc([C@@H]5CCCN5C(=O)[C@@H](NC(=O)OC)C(C)C)[nH]4)cc23)[nH]1)C(C)C` [Compound 5], the EC50 was determined as 15 pM in assay [1] (Hepatitis C virus, 72 h); 1 pM in assay [2] (Hepatitis C virus, 72 h); 186000 pM in assay [3].
For `COC(=O)NC(C(=O)N1CCC[C@@H]1c1ncc(-c2ccc3c(c2)c(F)c2n3CCOc3cc(-c4cnc(C5CCCN5C(=O)[C@@H](NC(=O)OC)C(C)C)[nH]4)ccc3-2)[nH]1)C(C)C` (some centres unmarked) [Compound 11], the EC50 in assay [1] stood at 10 pM; in assay [2] it was 5 pM.
Turning to `COC(=O)NC(C(=O)N1CCC[C@H]1c1ncc(-c2ccc3c(c2)cc2n3CCOc3cc(-c4cnc(C5CCCN5C(=O)[C@@H](NC(=O)OC)C(C)C)[nH]4)ccc3-2)[nH]1)C(C)C` (some centres unmarked) [Compound 7], the EC50 was determined as 10 pM in assay [1] (Hepatitis C virus, 72 h); 3 pM in assay [2] (Hepatitis C virus, 72 h); 565000 pM in assay [3].
On to `COC(=O)NC(C(=O)N1CCC[C@@H]1c1ncc(-c2ccc3c(c2)c(F)c2n3CCOc3cc(-c4cnc(C5CCCN5C(=O)[C@@H](NC(=O)OC)C(C)C)[nH]4)ccc3-2)[nH]1)C(C)C` (some centres unmarked) [Compound 10], for which the values for the EC50 in assay [1] and in assay [2] were 2000 pM and 700 pM, respectively.
On the same counts, the results for `COC(=O)NC(C(=O)N1CCC[C@H]1c1ncc(-c2ccc3c(c2)c(F)c2n3CCOc3cc(-c4cnc(C5CCCN5C(=O)[C@@H](NC(=O)OC)C(C)C)[nH]4)ccc3-2)[nH]1)C(C)C` (some centres unmarked) [Compound 8] are 16 pM and 7 pM.
For `COC(=O)NC(C(=O)N1CCC[C@H]1c1ncc(-c2ccc3c(c2)c(F)c2n3CCOc3cc(-c4cnc(C5CCCN5C(=O)[C@@H](NC(=O)OC)C(C)C)[nH]4)ccc3-2)[nH]1)C(C)C` (some centres unmarked) [Compound 9] the same measures were 1180 pM and 270 pM.
